In general, IC50 refers to the concentration needed to halve the response being measured. As a reminder, the AUC(0-t) is exposure summed from dosing to a finite time, without extrapolation to infinity. The bioavailability is dose-corrected exposure relative to a reference, in per cent. In general, half-life refers to the time in which the quantity being followed falls by half. The Vd is the apparent volume that relates the amount in the body to the concentration in plasma or blood. By AUC(0-inf) is commonly meant total exposure, with the tail of the curve extrapolated. As a reminder, the clearance is the rate of elimination divided by the concentration.

Series [1] addresses T1, Prostaglandin E2 receptor EP1 subtype (Rattus norvegicus, UniProt P70597).
T1 sequence (P70597 whole entry): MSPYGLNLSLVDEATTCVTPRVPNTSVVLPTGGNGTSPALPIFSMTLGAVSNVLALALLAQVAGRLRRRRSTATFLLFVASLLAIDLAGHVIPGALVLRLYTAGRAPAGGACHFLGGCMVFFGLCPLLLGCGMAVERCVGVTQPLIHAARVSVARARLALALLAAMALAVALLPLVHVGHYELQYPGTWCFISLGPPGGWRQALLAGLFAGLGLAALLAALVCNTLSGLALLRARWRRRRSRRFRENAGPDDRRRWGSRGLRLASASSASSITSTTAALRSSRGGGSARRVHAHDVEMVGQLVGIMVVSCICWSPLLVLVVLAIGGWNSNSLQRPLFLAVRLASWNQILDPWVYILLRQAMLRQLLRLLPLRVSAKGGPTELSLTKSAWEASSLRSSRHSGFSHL
As to the kind of experiment: Antagonist activity at rat EP1 receptor expressed in African green monkey COS1 cells assessed as decrease in prostaglandin E2-induced increase in intracellular calcium level incubated for 90 mins measured for 60 secs by Fluo 4-AM dye based fluorescence assay. Format: functional, cell-based. On the technique in general: A change in cytosolic calcium serves as a functional read-out for many receptors and channels.

The nature of series [2]: AUC (0 to 8 hrs) in rat at 1 mg/kg, iv. Set-up: dose 1 mg/kg, time < 8 hr, route intravenous. Format: ADME, organism-based. As to conditions: in vivo.
Series [3] is described as follows: Oral bioavailability in rat at 1 mg/kg. Format: ADME, organism-based. To be noted: in vivo.
Series [4] relates to Rattus norvegicus. As to the kind of experiment: Reduction in 17-PTP induced bladder contraction in Wistar rat assessed as change in intravesical pressure administered intravenously pretreated for 5 followed by 17-PTP challenge at every 30 mins interval for 245 mins. Format: functional.
The nature of series [5]: Half life in rat at 1 mg/kg, iv. Format: ADME, organism-based. To be noted: in vivo.
Series [6] is described as follows: Volume of distribution in rat at 1 mg/kg, iv. It is filed as ADME, organism-based. As to conditions: in vivo.
The nature of series [7]: AUC (0 to infinity) in rat at 1 mg/kg, iv. It is filed as ADME, organism-based. Set-up: dose 1 mg/kg, time infinity, route intravenous. To be noted: in vivo.
Series [8] in a line: AUC (0 to 8 hrs) in rat at 1 mg/kg, po. As to conditions: in vivo. Set-up: time < 8 hr, dose 1 mg/kg, route oral. Format: ADME, organism-based.
The test system of series [9] is Rattus norvegicus. Briefly: Reduction in 17-PTP induced bladder contraction in Wistar rat assessed as change in intravesical pressure administered intraduodenal pretreated for 5 followed by 17-PTP challenge at every 30 mins interval for 245 mins. Format: functional.
The nature of series [10]: Half life in rat at 1 mg/kg, po. Format: ADME, organism-based. To be noted: in vivo.
Series [11] is described as follows: Total clearance in rat at 1 mg/kg, iv. It is filed as ADME, organism-based. To be noted: in vivo.
The nature of series [12]: AUC (0 to infinity) in rat at 1 mg/kg, po. Set-up: dose 1 mg/kg, route oral, time infinity. As to conditions: in vivo. It is filed as ADME, organism-based.

Regarding `Cc1cc(C(=O)O)nn1Cc1cc(Cl)cc2cc(-c3ccccc3)nn12`, the concentration for half-maximal inhibition (IC50) in [1] came to 9.4 nM. Further, the exposure AUC(0-t) at 8 h in series [2] was 5010 ng·h/mL; in series [8], 4870 ng·h/mL. The bioavailability in series [3] was 81%. The Activity result in the series on Rattus norvegicus [4] and in the series on Rattus norvegicus [9] was “Dose-dependent effect” in each case. Besides, the half-life in series [5] was 4.99 h; in [10] it was 4.28 h. The compound further gave a Vd in series [6] of 0.908 L/kg. Further, the total exposure AUC(0-inf) is 7470 ng·h/mL in series [7] and 6030 ng·h/mL in series [12]. Also, in series [11], the clearance is 2.59 mL/min/kg.

With `Cc1cc(C(=O)O)nn1Cc1cc(Cl)cc2cc(-c3cccc(Cl)c3)nn12`, the IC50 in series [1] amounted to 150 nM.

Turning to `Cc1cc(C(=O)O)nn1Cc1cc(Cl)cc2cc(-c3ccc(Cl)cc3)nn12`, the IC50 in series [1] amounted to 290 nM.

`Cc1cc(Cn2nc(C(=O)O)cc2C)n2nc(-c3ccccc3)cc2c1`: in series [1], the concentration for half-maximal inhibition (IC50) came to 450 nM. Regarding `Cc1cc(C(=O)O)nn1Cc1cc(Cl)cc2cc(CC(C)C)nn12`, in [1], the IC50 worked out at 1400 nM. Same read-out and setting: the same measure for `Cc1cc(C(=O)O)nn1Cc1cc(Cl)cc2cc(C3CCCC3)nn12`: 410 nM; for `CCCc1cc(C(=O)O)nn1Cc1cc(Cl)cc2cc(-c3ccccc3)nn12`: 97 nM; for `COc1cc(Cn2nc(C(=O)O)cc2C)n2nc(-c3ccccc3)cc2c1`: 9600 nM. Same read-out and setting: the same measure for `COc1ccc(-c2cc3cc(Cl)cc(Cn4nc(C(=O)O)cc4C)n3n2)cc1`: 410 nM. In the case of `CC(C)c1cc(C(=O)O)nn1Cc1cc(Cl)cc2cc(-c3ccccc3)nn12`, the concentration for half-maximal inhibition (IC50) in series [1] amounted to 1200 nM. Still for that read-out and setting: the result for `Cc1cc(C(=O)O)nn1Cc1cc(Cl)cc2cc(-c3ccccc3)oc12` reads 22 nM. Same read-out and setting: the result for `COc1ccccc1-c1cc2cc(Cl)cc(Cn3nc(C(=O)O)cc3C)n2n1` reads 840 nM. The same measure, in the same setting: the result for `CC(C)Cc1cc(C(=O)O)nn1Cc1cc(Cl)cc2cc(-c3ccccc3)nn12` reads 2000 nM; that for `COc1cccc(-c2cc3cc(Cl)cc(Cn4nc(C(=O)O)cc4C)n3n2)c1`, 110 nM; that for `Cc1cc(C(=O)O)nn1Cc1cc(Cl)cc2cc(C3CCCCC3)nn12`, 71 nM.

Turning to `Cc1cc(C(=O)O)nn1Cc1cc(Cl)cc2cc(C3CC3)nn12`, the IC50 in [1] is 180 nM. Turning to `O=C(O)c1ccn(Cc2cc(Cl)cc3cc(-c4ccccc4)nn23)n1`, the 50% inhibitory concentration (IC50) in [1] came to 89 nM. Consider `COc1ccc(Cn2nc(C(=O)O)cc2C)n2nc(-c3ccccc3)cc12`, for which, in series [1], the IC50 was 1100 nM. The same measure, in the same setting: the same measure for `O=C(O)c1ccn(Cc2cc(Cl)cc3cc(-c4ccccc4)nn23)c1`: 190 nM; for `Cc1cc(C(=O)O)nn1Cc1cc(Cl)cc2cc(C(C)(C)C)nn12`: 2100 nM.

With `COc1ccc2cc(-c3ccccc3)nn2c1Cn1nc(C(=O)O)cc1C`, the IC50 in series [1] came out at 1500 nM. On the same count and under the same terms, the result for `C=Cc1cc(Cn2nc(C(=O)O)cc2C)n2nc(-c3ccccc3)cc2c1` reads 360 nM. The same measure, in the same setting: the result for `Cc1cc(C(=O)O)nn1Cc1cc(C#N)cc2cc(-c3ccccc3)nn12` reads 1000 nM. With `Cc1cc(C(=O)O)nn1Cc1c(Cl)ccc2cc(-c3ccccc3)nn12`, in [1], the IC50 was 540 nM. Same read-out and setting: the result for `CCc1cc(C(=O)O)nn1Cc1cc(Cl)cc2cc(-c3ccccc3)nn12` reads 300 nM. The same measure, in the same setting: the same measure for `Cc1cc(C(=O)O)nn1Cc1ccc(Cl)c2cc(-c3ccccc3)nn12`: 2600 nM; for `Cc1cc(C(=O)O)nn1Cc1cc(Cl)cc2cc(-c3ccccc3Cl)nn12`: 220 nM; for `CCCC/C=C/c1cc(Cn2nc(C(=O)O)cc2C)n2nc(-c3ccccc3)cc2c1`: 1500 nM. In the case of `CCCCc1cc2cc(Cl)cc(Cn3nc(C(=O)O)cc3C)n2n1`, the IC50 in series [1] is 1900 nM. Still for that read-out and setting: the result for `CC(=O)c1cc(Cn2nc(C(=O)O)cc2C)n2nc(-c3ccccc3)cc2c1` reads 600 nM.

Consider `Cc1cc(C(=O)O)nn1Cc1cc(C(F)(F)F)cc2cc(-c3ccccc3)nn12`, for which the 50% inhibitory concentration (IC50) in series [1] came out at 300 nM.

Consider `Cc1cc(C(=O)O)nn1Cc1cccc2cc(-c3ccccc3)nn12`, for which the IC50 in series [1] worked out at 120 nM.

Values taken from ChEMBL document CHEMBL4017448, “Novel pyrazolo[1,5-a]pyridines as orally active EP1 receptor antagonists: Synthesis, structure-activity relationship studies, and biological evaluation” (Bioorg Med Chem, 2017).
